Three molecules from ChEMBL document CHEMBL1147289, “A new bioactive derivative of avarol from the marine sponge Dysidea avara” (J Nat Prod, 1989) can be followed below.

The test system of data set [1] is Artemia. Briefly: Toxicity in brine shrimp. Format: organism-based. Particulars: in vivo.
In data set [2] the test system is Agrobacterium tumefaciens. Description: Antitumor activity against Agrobacterium tumefaciens-induced crown gall tumors in potato tubers by potato disk assay. Format: functional.

As usually defined, the LC50 is the concentration that kills 50% of the test population. A higher LC50 goes with a less lethal substance. Turning to `CC(=O)O.CC1=CCCC2[C@](C)(Cc3cc(O)ccc3O)[C@@H](C)CC[C@]12C` (stereo partly specified) [AVAROL MONOACETATE], in data set [1], the LC50 is 0.09 ppm. For the same molecule, in data set [2], the “inhibition (INH)” value was 59%.

Take `CC1=CCC[C@H]2[C@](C)(Cc3cc(O)ccc3O)[C@@H](C)CC[C@]12C` [AVAROL]: in data set [1], the LC50 was determined as 0.18 ppm. For the same molecule, in data set [2], the “inhibition (INH)” value was determined as 64%.

Consider `CC1=CCC[C@H]2[C@](C)(CC3=CC(=O)C=CC3=O)[C@@H](C)CC[C@]12C` [AVARONE], for which the LC50 in data set [1] was 0.14 ppm. In data set [2], the “inhibition (INH)” value worked out at 63%.
